Test results taken from patent publication US7572600B2, “Enzymatic activities in chemokine-mediated inflammation” (Chemocentryx, Inc., priority 2004, dated 2009).
Each block holds one molecule with its values, some of them ahead of it. Where no end group is shown, it is not given here.

What was measured:
human neutrophils = test: Calcium mobilization in freshly isolated human neutrophils; format: cell-based; conditions: undigested chemokine or peptide (100 nM)
Protocol: (§1) Calcium Mobilization Assay. Cells were loaded for 1 hour with 2 μM indo-1/AM dye (Molecular Probes, Eugene, Oreg.) in culture medium, then washed with 10 ml PBS and resuspended at 10^6/ml in HBSS containing 1% FBS. Cytosolic calcium responses were determined using a Photon Technology International (Lawrenceville, N.J.) fluorimeter, with excitation at 350 nm and dual emission at 400 and 490 nm. Alternatively, cells were loaded with 5 μg/ml Fluo-4 AM dye (Molecular Probes, Eugene, Oreg.), then washed and analyzed on a Fluorometric Imaging Plate Reader 384 (FLIPR^384 Molecular Devices, Sunnyvale, Calif.), with 505 nm excitation and 530 nm emission.
(§2) Receptor signaling assay. For individual measurements, cells were loaded for 45 min at room temperature with 2 μM indo-1/AM (Invitrogen, Carlsbad Calif.) in culture medium, then washed with 10 ml PBS and resuspended at 10^6 cells/ml in HBSS containing 0.1% BSA. Cytosolic calcium levels were determined using a Photon Technology International fluorimeter (excitation at 350 nm, ratio of dual emission at 400 and 490 nm). For measuring calcium dose responses, cells were analyzed with a Fluorometric Imaging Plate Reader 384 (FLIPR^384) (Molecular Devices, Sunnyvale, Calif.). Cells were loaded for 1 hr at 37° C. with 5 μM fluo-4 in HBSS with 0.1% BSA, then washed, transferred to black-wall 96-well plates, and subsequently excited at 505 nm with emission recorded at 530 nm with a standard protocol provided by the manufacture. Cells were stimulated with agonists 20 s after the monitoring of fluorescence began. Data were analyzed and plotted in arbitrary units of fluorescence using Prism. To ensure that responses were specific to FPRL1, we utilized a selective small-molecule antagonist of human FPRL1, generated by ChemoCentryx, which was optimized from a high throughput compound library screening approach.

human monocytes = test: Calcium mobilization in freshly isolated human monocytes; format: cell-based; conditions: for calcium mobilization: undigested chemokine or peptide, 100 nM (CCL23β up to 250 nM)
Protocol: as §1, §2

leukocytes (neutrophils) = test: Leukocyte recruitment to skin after intradermal injection; format: in vivo; conditions: 2 μg intradermally, c57Bl/6 and BALB/c mice, 6 hours
Protocol: Immunohistochemistry. BALB/c and c57Bl/6 mice were injected intradermally with 50 μl sterile saline with or without 2 μg SHAAGtide. 6 hours later, mice were euthanized and the skin surrounding the injection site was excised. After immersion in 10% neutral-buffered formalin for 18-24 hours, the skin biopsy was processed in graded alcohols and embedded in paraffin wax. 5 μm-wide sections were cut on a Leica microtome, transferred to glass slides, deparaffinized in xylenes, and hydrated through graded alcohols. The sections were either stained with hematoxylin and eosin (Sigma, St. Louis Mo.) or stained immunohistochemically for neutrophils as follows. The slides were immersed in Target Retrieval solution (Dako, Carpinteria Calif.) for 20 minutes at 90° C., rinsed with water and immersed in tris-buffered saline (TBS) containing 2% bovine serum albumin for 20 minutes. The sections were then exposed to rat anti-mouse neutrophil monoclonal antibody (Accurate Chemical and Scientific, Westbury N.Y.) or rat IgG2a isotype control antibody (BD Pharmingen, San Diego Calif.) for 1 hour, rinsed with TBS, and exposed to biotinylated goat anti-rat Ig (Dako) for 30 minutes. The sections were then rinsed with TBS, stained with the ABC-AP and fuchsin reagents (both from Dako), rinsed with water, and counterstained with hematoxylin for 2 minutes. […]

[1] = test system: monocyte-derived dendritic cells; test: Calcium mobilization in monocyte-derived dendritic cells; format: cell-based, human
Protocol: Human monocytes were obtained from buffy coats purchased from the Stanford Blood Bank (Palo Alto, Calif.) by sedimentation on Ficoll-Paque (Amersham, Piscataway, N.J.) and selection with anti-CD14 magnetic beads (Miltenyi, Auburn, Calif.) according to the manufacturers' instructions. For generation of dendritic cells, monocytes were cultured for 6 days in RPMI-1640 medium containing 10% FBS (HyClone, Logan, Utah). On days 0, 2 and 4, GM-CSF and IL-4 (both purchased from R&D Systems, Minneapolis, Minn.) were added to the cultures at 1000 WHO unit/ml each. The cells were confirmed to be CD14^−CD1a^+ immature DC by FACS staining on day 6.
as §1
Immature and mature DC preparation. Immature DCs were derived by culturing CD14+ monocytes in T-175 cultured flasks at a density of 10^6 cells/ml in RPMI supplemented with 10% FBS. Recombinant human cytokines GM-CSF and IL-4 (final concentration 1000 and 500 U/ml, respectively) were added on day 0, 2, 4 and 6. Cells were harvested on day 6 as immature DCs and characterized for surface marker expression by flow cytometry. DC maturation was carried out by culturing day-6 immature DCs in RPMI-10% FBS supplemented with GM-CSF, IL-4 and 50 μg/ml polyIC (Sigma, St. Louis Mo.). After two more days of culture, cells were harvested as mature DCs and characterized by surface marker expression by flow cytometry.
as §2

FPRL1 = target: T1, FPRL1 (Homo sapiens, UniProt P25090); test: Functional assays on FPRL1 (receptor signaling and chemotaxis); format: cell-based; set-up: endogenous in cells; host or cells: human CD14+ monocytes from buffy coats
T1 sequence (P25090 1-351): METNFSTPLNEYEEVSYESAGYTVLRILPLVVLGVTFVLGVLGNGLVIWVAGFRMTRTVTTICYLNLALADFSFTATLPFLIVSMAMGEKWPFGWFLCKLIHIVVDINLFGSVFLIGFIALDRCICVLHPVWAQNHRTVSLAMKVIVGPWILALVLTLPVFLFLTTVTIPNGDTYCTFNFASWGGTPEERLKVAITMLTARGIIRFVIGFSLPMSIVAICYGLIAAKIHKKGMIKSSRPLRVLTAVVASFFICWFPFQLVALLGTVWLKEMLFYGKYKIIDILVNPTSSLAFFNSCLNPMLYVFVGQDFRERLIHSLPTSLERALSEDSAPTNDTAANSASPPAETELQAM
Protocol: as §2
Chemotaxis assays. L1.2-CCR1 and L1.2-FPRL1 transfectants, monocytes and neutrophils were collected by centrifugation and resuspended in HBSS with 0.1% BSA. The assays were performed in 96-well ChemoTx® microplates (Neuroprobe, Rockville, Md.). Chemokines were diluted in HBSS with 0.1% BSA and added to the lower wells (final volume 29 μL), then 20 μL of cell suspension (5×10^6 cells/mL for monocytes; 2.5×10^6 cells/mL for neutrophils) were added to the polycarbonate filters (5 μm pore size for monocytes and FPRL1 transfectants; 3 μm pore size for neutrophils). After incubation for 90 min (37° C., 100% humidity, 5% CO2), the filters were removed and the cells that migrated into the lower chamber were quantified by using the CyQuant cell proliferation assay kit (Molecular Probes, Oreg.).

fold more potent than all other natural agents posited to act on FPRL1 (FPRL1): 50 to 100 fold
EC50 (FPRL1; isolated peptide): 10 to 30 nM
potency and efficacy versus other purported natural FPRL1 ligands (SAA, beta-amyloid protein 42, lipoxin A4, fMLP) (FPRL1; receptor signaling and chemotaxis assays): more potent and efficacious
Molecule: MLWRRKIGPQMTLSHAAG [SHAAGtide]
calcium mobilization (human neutrophils): equipotent to CCL23β Δ24
calcium mobilization (human monocytes): equipotent to CCL23β Δ24
mice with recruitment of leukocytes (primarily neutrophils) into the subcutis region of the dermis (leukocytes (neutrophils)): 6 of 6
calcium response ([1]; immature DC, undigested): much smaller calcium response
calcium response ([1]; mature DC): small amount of signaling activity

B1: CCL23β Δ24: truncated form of CCL23β lacking the 24-residue N-terminal domain, beginning with the SHAAGtide insertion (protein, listed as Homo sapiens)
chain: MLWRRKIGPQMTLSHAAGFHATSADCCISYTPRSIPCSLLESYFETNSECSKPGVIFLTKKGRRFCANPSDKQVQVCMRMLKLDTRIKTRKN
calcium mobilization (human neutrophils): very robust calcium response
magnitude of calcium signal versus CCL15 Δ24/leukotactin (human monocytes; both at 100 nM): at least two fold higher
calcium mobilization (human monocytes): particularly strong and sustained calcium profile
calcium response ([1]; immature DC, undigested): strong calcium response
calcium response ([1]; mature DC): diminished
